≈ marks a conversion by molar mass, not a printed value.
What was measured:
L. ivanovii ATCC19119 [1] = experiment: MIC and MBC, microtiter broth dilution method; format: cell-based; settings: Listeria ivanovii, triplicate
Protocol: Minimal inhibitory concentrations (MICs) and Minimum bactericidal concentrations (MBCs) assays were determined using the microtiter broth dilution method. Ampicillin was also tested with the same concentration gradient as a positive control. All tests were performed in triplicate.

L. ivanovii ATCC19119 [2] = experiment: In-vitro killing curve (time-kill) assay; format: cell-based, Listeria ivanovii; settings: 2 × MIC, 10 h time-kill
Protocol: To evaluate the antibacterial activity of rEntA against L. ivanovii ATCC19119, a time-kill assay was performed as described by the methods of Mao [32]. In addition, tubes with only bacterial inoculum were used as growth controls. All experiments were performed in triplicate.

[3] = cited from earlier work
Protocol: The native EntA was stable at 100°C and acidic pH conditions. […] These properties were potentially due to the higher cysteine content of the antimicrobial peptides, similar to the EntA containing four cysteine residues. In addition, the antimicrobial activity of some bacteriocins (nisin, sakacin P and curvacin A) was si ...

[4] = tested on: digestive proteases trypsin and pepsin; settings: cited from earlier work
Excerpt: Similarly, the purified rEntA, with 12.76% basic amino acids and 10.63% aromatic amino acids, was inactivated with trypsin and pepsin (Figure 4C). This high sensitivity to digestive proteases of rEntA contributes to its safety in foods and drugs, during and after oral administration.

CC1(C)S[C@@H]2[C@H](NC(=O)[C@H](N)c3ccccc3)C(=O)N2[C@H]1C(=O)O [ampicillin]
MBC (L. ivanovii ATCC19119 [1]): 1.56 µg/mL (≈ 4.46 µM)
MIC (L. ivanovii ATCC19119 [1]): 0.39 µg/mL (≈ 1.12 µM)
growth of survivors after MVL (L. ivanovii ATCC19119 [2]): resumed growth

nisin: class I bacteriocin, widely used in commerce (ITSISLCTPGCKTGALMGCNMKTATCHCSIHVSK; not fully specified; Lantibiotic nisin-A; UniProt P13068 24-57, looked up)
effect of NaCl on antimicrobial activity ([3]; addition of NaCl from 0 to 1.17 M): significantly enhanced

pediocin PA-1: class IIa bacteriocin (KYYGNGVTCGKHSCSVDWGKATTCIINNGAMAWATGGHQGNHKC; UniProt P29430 19-62, looked up)
bactericidal activity and overall structure at higher temperatures [3]: well maintained
sensitivity to trypsin and pepsin [4]: very sensitive

Source: PMC4160546, “Biotechnical paving of recombinant enterocin A as the candidate of anti-Listeria agent” (BMC Microbiology, 2014)
